Article PMC7793531 (International Journal of Molecular Sciences, 2020)
Read-outs that look alike come from different tables or passages of the source. One block for each compound: values may come before it. Non-standard residues stand in square brackets, D forms with d. Residues, ends and D or L forms follow the SMILES beside them. ξ: configuration not given here. Oic(3aξ,7aξ) = O=C(O)[C@@H]1CC2CCCCC2N1; hArg = N=C(N)NCCCC[C@H](N)C(=O)O; Dab = NCC[C@H](N)C(=O)O

What was measured:
[1] = test system: NRP-1 expression on MDA-MB-231 breast cancer cells; assay: Labelled urea-peptide hybrid binding assay at 37 °C, time course of NRP-1 cell surface expression (FACS); format: cell-based, human
Procedure: Usually, in the presence of its natural ligand, a transmembrane receptor at the cell surface may induce signaling, internalization of complex and recycling at the cell surface. […] Thus, to identify the mechanism of action of the hybrid 10 on the NRP-1 expression on cells, we followed its expression after a time course exposure of cells at 37 °C. […] This intriguing result focused our attention on tracking the level of expression intensity of NRP-1 on the surfaced of MDA-MB-231 cells exposed on compound 10. […] The median fluorescent intensity after 1 h (T60) of cell exposure on hybrid 10 was 1.5-fold higher than after 5 min of incubation (Figure 7b). […] This hypothesis is strengthened here, since MDA-MB-231 expressed a large amount of NRP-1 at the cell surface, but also had plenty of the cytoplasmic counterpart, reaching a maximum of median fluorescence intensity higher than the restricted level of NRP-1 expression at the surface (Figure 7c).
(§1) Cells were harvested using a mix of EDTA/Trypsin buffer (Invitrogen, France) to detach cells from plastic after 5 min exposure at 37 °C. […] After washing with PBS containing 2% FCS, stained cells were analyzed using BD FACSCalibur^TM (San Jose, CA, USA) and FlowJo^TM cell analysis software (FlowJo LLC, Ashland, OR, USA). […]

VEGF-A165/NRP-1 complex [2] = molecular target: T1, VEGF-A165/NRP-1 complex (Homo sapiens, UniProt O14786); assay: Competitive ELISA-like assay, inhibition of bt-VEGF-A165 binding to immobilized NRP-1; conditions: recombinant human NRP-1, bt-VEGF-A165, chemiluminescence; read-out: IC50, VEGF-A165/NRP-1 complex inhibitory effect
T1 construct: purchased R&D Systems
T1 sequence (O14786 22-641 limits assumed): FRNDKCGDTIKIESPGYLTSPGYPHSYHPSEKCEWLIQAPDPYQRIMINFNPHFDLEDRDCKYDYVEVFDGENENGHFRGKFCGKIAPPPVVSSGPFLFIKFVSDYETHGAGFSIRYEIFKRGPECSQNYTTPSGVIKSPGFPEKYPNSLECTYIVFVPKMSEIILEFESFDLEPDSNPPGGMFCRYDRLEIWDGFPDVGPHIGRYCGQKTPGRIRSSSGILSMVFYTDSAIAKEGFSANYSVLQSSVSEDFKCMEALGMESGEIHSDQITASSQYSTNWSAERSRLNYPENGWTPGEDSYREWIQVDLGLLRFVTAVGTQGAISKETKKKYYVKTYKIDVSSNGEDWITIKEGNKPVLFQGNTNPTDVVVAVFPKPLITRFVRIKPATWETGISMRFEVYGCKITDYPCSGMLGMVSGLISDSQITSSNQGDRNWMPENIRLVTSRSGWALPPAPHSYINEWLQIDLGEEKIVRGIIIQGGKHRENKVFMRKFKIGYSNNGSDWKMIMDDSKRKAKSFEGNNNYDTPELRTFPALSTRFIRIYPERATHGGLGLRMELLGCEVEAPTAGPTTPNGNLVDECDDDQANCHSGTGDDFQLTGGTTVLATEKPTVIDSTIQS
Procedure: Inhibitory activity of urea–peptide hybrids against VEGF-A165/NRP-1 complex formation was assessed with a screening ELISA-like assay. NRP-1 was immobilized on microplate wells by simple adsorption and urea–peptide hybrids competed for NRP-1 with biotinylated VEGF-A165 (bt-VEGF-A165). The amount of receptor bound bt-VEGF-A165 was visualized by its interaction with the streptavidin–horseradish peroxidase conjugate (strep-HRP) and the chemiluminescent substrate. The first analyzed group of compounds were analogues 1–3 with the urea bond between L1 and L2. […] The best hybrid in this group was compound 3, which had Lys^U (gDab) branching (where “g” corresponds to guanidinium group), but its IC50 value decreased only 2-fold. Therefore, we assume that no additional interactions between urea bond and the surface of the protein occurred. […] In the case of urea–peptide hybrids, the urea bond might be capable of forming additional hydrogen bonds with protein residues on the surface of NRP-1. The affinity of compounds may conceivably be affected by the colocation of the urea bond and the free amino group of hArg in the branching. In addition, for compounds 4–6, we can observe that decreasing the distance between the free amino group in the main chain and the urea bond in the branching has a positive effect on compounds’ affinity for NRP-1.
This method was previously described for NRP-1 [44, 45, 46]. Briefly, overnight coating at 4 °C of the flat bottom surface of a 96-well plate with 100 μL (200 ng/well) recombinant human NRP-1, NRP-2, VEGFR-1 or VEGFR-2 was followed by non-specific interactions blocking using 0.5% bovine serum albumin (BSA) in PBS. Next, 50 µL of urea–peptide hybrid in PBS and 50 µL (400 ng/mL) of human (bt)-VEGF-A165 in PBS containing 4 µg/mL of heparin were added respectively. Plates were incubated for 2 h at RT, and then washed and treated with streptavidin-horseradish peroxidase conjugate in PBS (1:8000). Next, 100 µL chemiluminescent substrate was added, and luminescence was quantified using Tecan Infinite F200Pro microplate reader (Männedorf, Switzerland). In a positive control (P) only (bt)-VEGF-A165 was present in wells. Not coated by receptor wells were treated as a negative control (N). Percentages of inhibition were calculated by the following formula:100% − [[(S − N)/(P − N)]∙100%](1) where S is the signal intensity measured in wells with urea–peptide hybrid. The IC50 of each urea–peptide hybrid was calculated using the nonlinear regression function with GraphPad Prism Version-5.01 (GraphPad Software, San Diego, CA, USA). Data are presented as log (inhibitor) versus normalized response-variable slope (Figure S16). Data are the means ± SEMs of two or three independent experiments, each performed in triplicate.

[3] = test system: NRP-1-positive breast cancer cells (MDA-MB-231); assay: Labelled urea-peptide hybrid binding assay at 4 °C on cells (FACS), with NRP-1 co-staining; format: cell-based, human
From the text: VEGF-A165 binds to cell-surface NRP-1 on endothelial cells, effectively reducing surface levels of this receptor, promoting complex internalization and possibly inducing biological effects. Based on this mechanism, peptide carriers for selective drug delivery, such as iRGD peptides, have been recently disclosed. The iRGDs are used to selectively address potential therapeutic agents, e.g., doxorubicin or siRNAs inside malignant cells. We tested our tagged urea–peptide hybrid’s ability to bind human NRP-1-positive breast cancer cells (MDA-MB-231), which expressed large amount of NRP-1 at the cell surface (Figure 6a). A broad range of concentrations between 0 to 100 µg/mL of compound 10 was used to show its binding capacity on cells using fluorescence-activated cell sorting (FACS). […] To follow the impact of the ligation of this peptidomimetic on NRP-1 expression, we verified whether hybrid 10 binding interferes with the antibody used to detect NRP-1. […]
as §1

[4] = In vitro enzymatic stability in human blood serum (LC-SWATH-MS); format: in vitro ADME; conditions: pooled human blood serum, 37 °C
Procedure: Rapid renal clearance and enzymatic degradation are classified as most important disadvantages of peptides as drugs. Covalent linkage to plasma proteins or chemical modifications, including amide bond modifications, might improve their half-lives. We performed proteolytic stability studies in human blood serum to investigate whether the introduction of urea bonds affected the half-lives of compounds from each of synthesized group of hybrids. Compounds 3, 6 and 7 were incubated with human serum at 37 °C. Samples were taken at different time intervals and analyzed using LC-SWATH-MS [88, 89, 90]. […] Hybrids 6 and 7 were stable toward enzymatic degradation, with 50% of each compound still being intact after 96 h (Figure 5). […] Overall, it can be concluded that the substitution of an amide bond with a urea bond has a positive effect on the proteolytic stability of the examined inhibitors.
The study was conducted in full accordance with ethical principles in accordance with the ICH E6 (R2) Guideline for Good Clinical Practice and the Code of Good Customs in Science developed by the Polish Academy of Sciences. Signed consent for using serum was obtained from volunteers. The Rector’s Commission for Ethics of Scientific Research with Human Participation, University of Warsaw, Warsaw, Poland gave the ethical approval (approval number 51/2020). Human blood from four healthy persons was directly drawn into evacuated tubes and left undisturbed at room temperature for 1 h to clot. Tubes were centrifuged at 2500× g for 10 min to prevent possible platelet activation. Serum was pipetted out of the blood collection tubes, pooled and collected in microtubes.
A degradation assay was adapted from a method described previously. Human blood serum was preactivated in Eppendorf ThermoMixer® Comfort (Hamburg, Germany) at 37 °C for 20 min (350 rpm). Next, 20 μL of aqueous urea–peptide hybrid stock solution was added to give ∼750 μg/mL final compound concentration, and incubation was continued. At selected time intervals, 50 μL of the mixture was collected and quenched by adding 200 μL of ACN:H2O:FA mixture (89:10:1, v:v:v). The obtained suspension was vortexed for 1 min (3000 min^−1) and centrifuged for 10 min in 4 °C (11,000× g). 100 μL of supernatant was collected and lyophilized. The samples reconstituted in 1 mL of 10 mM ammonium formate with 0.1% FA were subjected to LC-MS. Relative concentration at time intervals was calculated using peak area of either individual or most intense fragment of compound of interest. Analyst software version 1.7.1 was used for data acquisition, Peak View 2.2 and MultiQuant 2.1 (Sciex, ON) were used for data processing. Detailed analytical data can be found in Supplementary Materials (Figures S17–S45). […]

VEGF-A165/NRP-1 complex [5] = molecular target: T1, VEGF-A165/NRP-1 complex; conditions: read-out: IC50, VEGF-A165/NRP-1 complex inhibitory effect, cited from earlier work

IC50 (VEGF-A165/NRP-1 complex [2]): 4.04 µM
Compound: 5/6-FAM-Dab(hArg^U)-Dab-Oic-Arg [Compound 10]
median fluorescent intensity of NRP-1 after 1 h (T60) relative to 5 min of incubation ([1]; 100 µg/mL, 37 °C): 1.5 fold | effect on NRP-1 cell surface expression ([1]; time course at 37 °C, independently of time exposure): no downmodulation of NRP-1 expression | binding on cells ([3]; 0 to 100 µg/mL, FACS): dose-dependent | median fluorescence intensity of NRP-1 staining in presence of compound ([3]; 100 μg/ml, 4 °C, 94 in its absence): 88

half-life [4]: 8 h
Compound: N=C(N)NCCCC[C@H](N)C(=O)NCCCC[C@H](N)C(=O)N[C@@H](CCN)C(=O)N1C2CCCCC2C[C@H]1C(=O)N[C@@H](CCCNC(=N)N)C(=O)O (stereo partly drawn) [PP, Lys(hArg)-Dab-Oic-Arg, reference compound] (H-K(hArg)[Dab][Oic(3aξ,7aξ)]R-OH)
IC50 (VEGF-A165/NRP-1 complex [5]; data already published): 2.3 µM

Compound: Lys(Arg^U)–Dab–Oic–Arg
IC50 (VEGF-A165/NRP-1 complex [5]; earlier urea analogue): 5.5 µM
